Measurements as given in patent US20220008402A1, “INCREASED E-CADHERIN EXPRESSION OR ACTIVITY FOR THE TREATMENT OF INFLAMMATORY DISEASES” (The Cleveland Clinic Foundation, priority 2020, published 2022).
“Also recorded” adds a separate entry of the source.

Key:
Format in all cases: cell-based, human
[1] = tested on: HT-29 cF8 cell monolayers; experiment: Epithelial barrier permeability in vitro (TEER, FITC-dextran flux), steady state; details: 10 μM
Procedure: (§1) FIG. 1: E-cadherin-enhancing drugs decrease ionic permeability of model colonic epithelial cell monolayers. Confluent T84 (A), HT-29cF8 (B) and SK-0015 (C) cell monolayers were treated for indicated times with either vehicle, E-cadherin upregulator (ECU, 10 μM), or ML327 (10 μM). Transepithelial electrical resistance (TEER) of the cell monolayers was measured before and during the drug treatment. Data is presented as mean ±SE (n=3); *P<0.05.
(§2) FIG. 2: E-cadherin-enhancing drugs decrease colonic epithelial permeability to large molecules. Confluent T84 (A), HT-29cF8 (B) and SK-C015 (C) cell monolayers were treated with either vehicle, ECU, or ML327, as described in the FIG. 1 legend. Trans-monolayer flux of FITC-dextran was determined at the end of the drug treatment. Data is presented as mean ±SE (n=3); **P<0.05 ***P<0.01.
(§3) Transepithelial electrical resistance (TEER) of cultured T84, HT-29 and SK-C015 intestinal epithelial cell monolayers was measured using an EVOMX voltohmmeter (World Precision Instruments, Sarasota, Fla.). Cells were plated on collagen-coated transwell filters (pore size 3 μm, Thermo-Fisher). The resistance of cell-free collagen-coated filters was subtracted from each experimental point. An in vitro dextran flux assay was performed by a following commonly-used protocol. Intestinal epithelial cell monolayers growing on transwell filters were apically exposed to 1 mg/ml of FITC-labeled dextran (4,000 Da) in HEPES-buffered Hanks balanced salt solution (HBSS). After 120 min of incubation, HBSS samples were collected from the lower chamber, and FITC fluorescence intensity was measured using a Victor^3 V plate reader (Perkin Elmer, Waltham, Mass.) with excitation and emission wavelengths 485 and 544 nm, respectively. After subtracting the fluorescence of dextran-free HBSS the amount of FITC dextran translocated across the epithelial cell monolayer was calculated based on a calibration curve using Prism 5 software (GraphPad, La Jolla, Calif.).
(§4) One set of experiments examined the effects of E-cadherin upregulator (ECU) and ML327 on the barrier properties of normal model intestinal epithelial cell monolayers. Three different human colonic epithelial cell lines, namely, T84, SK-0015 and HT-29 cF8 cells, were used. Cells were plated on collagen-coated transwell filters and allowed to reach confluency and differentiate for 5-7 days after plating. Thereafter, cell monolayers were exposed to either ECU (10 μM), ML327 (10 μM) or vehicle (DMSO). Transepithelial electrical resistance (TEER) was measured before and at different times after addition of E-cadherin-enhancing drugs. A transepithelial flux of FITC-dextran was examined at the end of the drug exposure to evaluate epithelial permeability to large uncharged molecules.

SK-0015 cell monolayers = experiment: as above; details: 10 μM
Procedure: as §1, §2, §3, §4

T84 cell monolayers [2] = experiment: as above; details: 10 μM
Procedure: as §1, §2, §3, §4

T84 cell monolayers [3] = experiment: Cytokine (TNFα/IFNγ)-induced disruption of the epithelial barrier (TEER, FITC-dextran flux); details: 10 μM pretreatment 24 h, then TNFα 10 ng/ml + IFNγ 50 ng/ml, 48 h
Procedure: (§5) Confluent T84 cell monolayers were pretreated with either vehicle, or ECU (10 μM) for 24 h. Afterwards, cells were exposed to a combination of TNFα (10 ng/ml) and IFNγ (50 ng/ml) with and without ECU. (A) TEER was measured at the indicated times. (B) FITC-dextran flux was examined after 48 h incubation with cytokines. Data is presented as mean ±SE (n=3); ***P<0.001.
as §5, with “ML327” for “ECU”, “hours.” for “h.”, “ML327.” for “ECU.”, “(n=3); **P<0.05,” for “(n=3);”
as §3
A combination of two cytokines were selected: tumor necrosis factor alpha (TNFα, 10 ng/ml) and interferon-gamma (IFNγ, 50 ng/ml), which are known to compromise barrier integrity and trigger apical junction disassembly in cultured epithelial cell monolayers and intestinal mucosa in mice. Indeed, 48 hour incubation of well-differentiated T84 cell monolayers with TNFα and IFNγ caused a dramatic decrease in TEER (FIGS. 3A, 4A) and increase in transepithelial dextran flux (FIGS. 3B, 4B), which indicates the increase in barrier permeability. […] Next, it was examined if ECU protects epithelial adherens junctions (AJ) and tight junctions (TJ) from cytokine-induced disassembly. Immunofluorescence labeling of a specific AJ marker, E-cadherin, and a TJ marker, ZO-1, was used to visualize structure of different junctional complexes. […]

T84 cell monolayers [4] = experiment: Wound healing assay; details: 10 μM pretreatment 24 h, migration 24-48 hours
Procedure: FIG. 8: E-cadherin-enhancing drug promote collective migration of intestinal epithelial cells. Confluent T84 cell monolayers were pretreated with either vehicle, ECU (10 μM) or ML327 (10 μM) for 24 hours. Afterwards, cell monolayers were wounded and allowed to migrate into wound area in the presence of the drugs. Cell monolayers were photographed and wound closure was calculated at the indicated times. Data is presented as mean ±SE (n=3); **P<0.05, ***P<0.01.
Confluent epithelial cell monolayers were mechanically wounded by making a thin scratch wound with a 200 μl pipette tip. The bottom of the well was marked to define the position of the wound and the monolayers were supplied with fresh cell culture medium. The images of a cell-free area at the marked region were acquired at the indicated times after wounding using an inverted bright field microscope equipped with a camera. The percentage of wound closure was calculated using an Image J software (NIH, Bethesda, Md.).
Finally, the effects of E-cadherin-enhancing drugs on epithelial restitution (wound healing) were examined. This is an important question given the fact that epithelial wounds are frequently formed in inflamed intestinal mucosa of IBD patients and wound healing is necessary to restore the integrity of the gut barrier and to achieve remission of chronic inflammatory diseases. […]

[5] = at the end of the drug exposure
[6] = rapid (within 24 h) and sustained (up to 96 h), vs vehicle (DMSO)

Which “Transepithelial flux of FITC-dextran” value [1, 5] does the source give for `O=C(NCCCCc1ccncc1)c1cc(-c2ccco2)on1` [ECU] here?
The value was “significantly inhibited FITC-dextran flux”.

And the “Transepithelial electrical resistance (TEER)” value ([1]; up to 96 h, vs vehicle (DMSO))?
Its value is “increase in TEER”.

And the “Transepithelial flux of FITC-dextran” value (SK-0015 cell monolayers; [5])?
The value was “significantly inhibited FITC-dextran flux”.

And the “Transepithelial electrical resistance (TEER)” value (SK-0015 cell monolayers; [6])?
Its value is “increase in TEER”.

What about the “Transepithelial flux of FITC-dextran” value (T84 cell monolayers [2]; at the end of the drug exposure, T84) of the same compound?
The value was “significantly inhibited FITC-dextran flux”.

And the “Transepithelial electrical resistance (TEER)” value (T84 cell monolayers [2]; [6])?
Its value is “increase in TEER”.

What about the “Cytokine-induced decrease in TEER” value (T84 cell monolayers [3]) of the same compound?
Its value is “prevents cytokine-induced disruption; also recorded: markedly attenuated”.

What about the “Cytokine-induced increase in transepithelial FITC-dextran flux” value (T84 cell monolayers [3]) of the same compound?
Its value is “prevents cytokine-induced disruption; also recorded: markedly attenuated”.

What about the “Cell migration during wound healing (wound closure)” value (T84 cell monolayers [4]) of the same compound?
The value was “significantly increased migration”.
